Earlier results, collected in patent US6635280B2, “Extending the duration of drug release within the stomach during the fed mode” (DepoMed, Inc., priority 1997, dated 2003).

Settings: oral doses administered with or following a meal

area under the plasma concentration-time curve, increase with or following a meal: two-fold to three-fold
peak plasma concentration, increase with or following a meal: two-fold to three-fold
Compound: Cc1c(O)cccc1C(=O)N[C@@H](CSc1ccccc1)[C@H](O)CN1C[C@H]2CCCC[C@H]2C[C@H]1C(=O)NC(C)(C)C [nelfinavir]
